This is an account of results in publication PMC3209502 (European journal of pharmacology, 2011).

The structures appear in SMILES notation.

One series relates to Sprague Dawley Rats. The series can be described thus: Locomotor activity test. It is filed as in vivo, rat. The settings on record: 5 mg/kg i.p., measured 0.5 h from 1 h post injection, vs vehicle.
The next series relates to C57Bl/6 mice. The series can be described thus: Mouse tail suspension test. It is filed as in vivo. As to conditions: 15 mg/kg, 30 min before testing, vs vehicle.
The test system of another series is male Sprague Dawley rats. Kind of series: Rat forced swimming test. As to conditions: 15 mg/kg i.p., 30 min pretreatment, vs vehicle. It is filed as in vivo.

Regarding `Fc1ccc(C(OCCN2CCN(CCCc3ccccc3)CC2)c2ccc(F)cc2)cc1` [GBR 12909, 1-[2-[bis(4-fluorophenyl)methoxy]ethyl]-4-[3-phenylpropyl]piperazine], the “locomotor activity (horizontal activity, HACTV)” value with Sprague Dawley Rats is listed as “significant rise”.

In the case of `CN(C)CCCN1c2ccccc2CCc2ccccc21` [imipramine, Imipramine], in the series with C57Bl/6 mice, the “immobility of mice in the tail suspension test” value is “significantly different compared to vehicle”. Besides, in the series on male Sprague Dawley rats, the “duration of immobility in the forced swimming test” value is listed as “produced a reduction in immobility”.
